We go through one substance from patent publication US9868935B2, “Composition and method of stem cells for preservation of cardiac tissue” (CRIOESTAMINAL, SAÚDE E TECNOLOGIA, SA., priority 2012, dated 2018).

In data set [1] the test system is CD34+ cells. Kind of data set: CD34+ cell self-renewal/differentiation by FACS. The data set is classed as cell-based, human. To be noted: LPA-treated; after 1 day of hypoxia. The procedure:
In an embodiment, multicolor analysis for progenitor and stem cell phenotyping was performed on a FACS Calibur cytometer (preferably, Becton Dickinson). Cells were stained for 1 h with APC or pacific blue antihuman CD45 (preferably, e-Bioscience), FITC anti-mouse CD45 (preferably, -Bioscience), PeCy7 anti-human CD33 (preferably, BD Bioscience), PE anti-human CD11b (preferably, BD Bioscience), FITC anti-human CD19 (preferably, BD Bioscience), PeCy7 anti-human CD3 (preferably, BD Bioscience), PE anti-human Glycophorin A (preferably, BD Bioscience), FITC anti-human CD41 (preferably, e-bioscience), and PeCy7 anti-human CD56 (preferably, BD Bioscience), washed with staining media and analyzed.
To examine the effect of LPA in CD34+ cell self-renewal/differentiation, untreated and LPA-treated CD34+ cells were cultured in X-vivo medium in hypoxia conditions for 1 day followed or not by 6 days in normoxia and finally characterized by FACS. After 1 day of hypoxia, both untreated or LPA-treated CD34+ cells started to differentiate into mast cells (between 14 and 17%) and neutrophils (between 5 and 8%) (FIG. 3B). Only 78% and 72% of the untreated or LPA-treated CD34+ cells express CD34 marker. CD34 expression is higher in cells that have been exposed to hypoxia than in normoxia conditions since only 6% of the cells cultured in normoxia conditions for 24 h express CD34 marker. […]

Data set [2] has as its system CD34+ cells encapsulated in fibrin gel. Kind of data set: Survival of CD34+ cells encapsulated in fibrin gels in hypoxia and serum deprived conditions. The format is cell-based, human. To be noted: LPA-treated. The method, then: In an embodiment, fibrin gels were formed by crosslinking of fibrinogen in the presence of thrombin (both from Sigma-Aldrich). The fibrinogen solution was prepared by dissolving human fibrinogen in Tris-buffered saline (TBS) (preferably, Sigma-Aldrich), pH 7.4 (20 mg/mL), and then sterilized by filtering through a 0.22 μm syringe filter (Acrodisc, Pall, NY, USA). Fresh thrombin solutions were prepared by dissolving human thrombin in TBS at pH 7.4 at a concentration of 50 U/mL. Fibrin gels (200 μL, unless otherwise stated) were prepared by mixing three different components: fibrinogen (10 mg/mL), CaCl2 (preferably, Merck, NJ, USA) ([…]) and thrombin (0.2 U/mL). This solution was allowed to gel at 37° C. and 100% relative humidity.
Injectable scaffolds are very promising vehicles to deliver stem cells for regenerative medicine since they provide a favorable structural support for cell survival and proliferation (Pedroso, D. C., et al., Improved survival, vascular differentiation and wound healing potential of stem cells co-cultured with endothelial cells. PLoS One, 2011. 6(1): p. e16114; Kraehenbuehl, T. P., R. Langer, and L. S. Ferreira, Three-dimensional biomaterials for the study of human pluripotent stem cells. Nat Methods, 2011. 8(9): p. 731-6; Nakamuta, J. S., et al., Cell therapy attenuates cardiac dysfunction post myocardial infarction: effect of timing, routes of injection and a fibrin scaffold. PLoS One, 2009. 4(6): p. e6005.). Several studies have shown that cells transplanted with scaffolds in the cardiac setting improved cell survival, induced angiogenesis and preserved cardiac function after infarction (Nakamuta, J. S., et al., Cell therapy attenuates cardiac dysfunction post myocardial infarction: effect of timing, routes of injection and a fibrin scaffold. PLoS One, 2009. 4(6): p. e6005; Christman, K. L., et al., Fibrin glue alone and skeletal myoblasts in a fibrin scaffold preserve cardiac function after myocardial infarction. Tissue Eng, 2004. 10(3-4): p. 403-9; Kraehenbuehl, T. P., et al., Human embryonic stem cell-derived microvascular grafts for cardiac tissue preservation after myocardial infarction. Biomaterials, 2011. 32(4): p. 1102-9; Kutschka, I., et al., Collagen matrices enhance survival of transplanted cardiomyoblasts and contribute to functional improvement of ischemic rat hearts. Circulation, 2006. 114(1 Suppl): p. I167-73). […] Cell viability was evaluated by flow cytometry using Annexin V/propidium iodide (PI) staining.

For the substance lysophosphatidic acid [LPA], the “cells expressing CD34 marker” value in data set [1] amounted to 72%. Also, the viable cells in data set [2] (encapsulated in fibrin gel, hypoxia day 1) was found to be 69.0±0.7%; in data set [2] (encapsulated in fibrin gel, hypoxia day 3), 51.1±0.8%; in data set [2] (non-encapsulated, hypoxia day 1), 76.7±1.5%; in data set [2] (non-encapsulated, hypoxia day 3), 37.2±6.6%.
